We go through 2 compounds from patent US5723616A, “Process for the preparation of a growth hormone secretagogue” (priority 1996, dated 1998).

The structures appear in SMILES notation. Converted amounts (≈) assume the structure as drawn. Read-outs that look alike come from different tables or passages of the source.

A short description of data set [1]: hygroscopicity observed at filtration of the wet crystals. Format: physicochemical. The settings on record: wet crystals during filtration (N2 essential). The method, then: The volume of the solution of 15 from the previous step was adjusted to 60 L with ethyl acetate and EtOH (4.8 L) was added. The MsOH (316 mL) was added in 3 L of EtOAc at 45° C. To the deep red homogeneous solution was added 496 g of the title compound Form I seed (10% seed based on the weight of the free amine was employed). The temperature rose to ca. 48° C. and the reaction was aged at 52° C. for 1.5 hours. Analysis indicated complete conversion to the title compound (Form I). (At less than 10% seed longer age (>3 hours) was required). The slurry was allowed to cool to 20° C. overnight and was filtered in a centrifuge under N2. The cake was washed with 20 L of 8% EtOH in EtOAc. […] The batch was dried at 35° C. under vacuum to afford 2.7 Kg (56% overall yield) of the title compound (Form I) (99.9 A % purity; <0.1% enantiomer).

Data set [2] can be described thus: solubility of the sulfonamide in various mixtures of toluene and n-PrOH, determined by HPLC assay. Format: physicochemical. As to conditions: organic solvent or mixture, read-out: solubility of 1. As for the experimental part:
The temperature of both the head and pot rose from 94° C. to 98° C. during the solvent switch. Toluene and n-PrOH form an azeotrope boiling at 97.2° C. composed of 47.5% toluene and 52.5% n-PrOH. The mixture was allowed to cool gradually to 20° C. over 3h and aged for 12 h. […] The solubility of the sulfonamide in various mixtures of toluene and n-PrOH has been determined by HPLC assay: […]

With `CC(C)(N)C(=O)N[C@H](COCc1ccccc1)C(=O)N1CCC2(CC1)CN(S(C)(=O)=O)c1ccccc12` [Form I, N-[1(R)-[(1,2-dihydro-1-methanesulfonyl-spiro[3H-indole-3,4'-piperdin]-1'-yl)carbonyl]-2-(phenylmethyl-oxy)ethyl]-2-amino-2-methylpropanamide methanesulfonate], in data set [1], the “hygroscopicity of the wet crystals” value is listed as “very hygroscopic”.
Broadly, the solubility is the concentration that dissolves in the medium under given conditions. With `CS(=O)(=O)N1CC2(CCN(C(=O)OCc3ccccc3)CC2)c2ccccc21` [Compound 1, CBZ-Spiroindoline-methanesulfonamide], the solubility was 3020 µg/mL (≈ 7.54 mM) in data set [2] (5% toluene in n-proh); 4230 µg/mL (≈ 10.6 mM) in data set [2] (10% toluene in n-proh); 7510 µg/mL (≈ 18.8 mM) in data set [2] (20% toluene in n-proh); 10300 µg/mL (≈ 25.7 mM) in data set [2] (25% toluene in n-proh); 2360 µg/mL (≈ 5.89 mM) in data set [2] (0% toluene in n-PrOH).
